Reference: PubChem BioAssay AID1996
≈ marks a conversion by molar mass, not a printed value.

Settings: buffer; pH 7.4; 200.0 µM

Structure (SMILES) | solubility kinetic [µg/mL]
COCN(C#N)c1nc(N(C)C)nc(N(C)C)n1 | > 37.7
Cc1ccc(OCCNC(=O)c2ccc3c(c2)OCO3)cc1 | 14.4 (≈ 48.1 µM)
Cc1cnc(C(=O)N2CCN(S(=O)(=O)c3ccc(F)c(F)c3F)CC2)cn1 | 55.8 (≈ 139 µM)
COc1ccc(-c2csc(-c3ccc(O)cc3)n2)cc1 | < 0.6
Cc1ccc(F)cc1NC(=O)N1CCCN(c2ccc(C(F)(F)F)cn2)CC1 | 6.6 (≈ 16.7 µM)
CC(C)CNC(=O)[C@@H]1CSC2c3ccccc3C(=O)N21 (some centres undefined) | > 43.6
CC(C)c1nc(SCC(=O)Nc2cccc3ccccc23)n[nH]1 | > 49
Cc1cc(C)c(C)c(OCCNCc2ccccc2)c1.O=C(O)C(=O)O | > 53.9
O=C(Nc1ccc2oc(=O)ccc2c1)c1ccc2ccccc2c1 | < 0.7
Nc1nc(-c2cc(-c3ccccc3)no2)cs1 | 4.4 (≈ 18.1 µM)
CCN(CC)CC(=O)Nc1sc(C)cc1C(=O)c1ccccc1 | 2.5 (≈ 7.57 µM)
Cc1ccc(S(=O)(=O)C2(C(=O)NCCc3ccccc3)CC2)cc1 | 50.5 (≈ 147 µM)
O=C(O)c1ccc(N2CCc3ccccc32)c([N+](=O)[O-])c1 | > 42.6
CC(C)NC(=O)N1c2ccccc2Sc2ccccc21 | 33.4 (≈ 117 µM)
O=C(NCCc1ccccc1)c1ccc(NC(=O)c2cccnc2)cc1 | 4.3 (≈ 12.4 µM)
Nc1[nH]c(=O)ncc1F | > 19.4
NS(=O)(=O)c1cccc(C(=O)NC2CCSc3ccccc32)c1 (centres undefined) | 42.4 (≈ 122 µM)
O=C(/C=C/c1ccc(O)c([N+](=O)[O-])c1)c1ccc2ccccc2c1 | 1.8 (≈ 5.64 µM)
O=C(O)c1ccccc1C(=O)NCCCn1ccnc1 | > 41
COc1ccc(-c2cccc(C(=O)N3CCOCC3)c2)cc1 | 40 (≈ 135 µM)

Structure (SMILES) | solubility kinetic [µg/mL]
Cc1ccc(NC(=O)/C=C/C(=O)O)c(NC(=O)c2ccccc2)c1 | > 48.7
NC(=O)c1ccccc1NC(=O)c1ccc2ccccc2c1 | < 0.3
O=C(Cc1cccc(C(F)(F)F)c1)NCc1cccnc1 | > 44.1
Cc1ccc(C(=O)CCC(=O)NC2=NCCS2)cc1 | 10.8 (≈ 39.1 µM)
CCN1C(=O)c2cccc3c(S(=O)(=O)Nc4ccccc4O)ccc1c23 | 0.5 (≈ 1.36 µM)
O=C(NCc1ccccn1)C(=O)Nc1cc2c3c(c1)CC(=O)N3CCC2 | > 52.6
Cc1ccc(OCCNC(=O)CNC(=O)c2ccc(C)cc2)cc1 | 6.8 (≈ 20.8 µM)
CCOn1c(=O)c(=O)n(OC)c2ccccc21 | > 35.4
O=C(O)CSc1c2c(nc3cc(C(=O)N4CCCC4)ccc13)CCCC2 | 48.6 (≈ 131 µM)
COc1ccc(/C=C(\C#N)C(=O)N2COCC2(C)C)cc1 | > 42.9
CCN1CC(CN(C)Cc2nc(Cc3ccccc3)no2)CC1=O (centres undefined) | > 49.3
CN(CC(=O)Nc1ccc(F)cc1)C(=O)Cn1cnc2ccc([N+](=O)[O-])cc2c1=O | 5.6 (≈ 13.5 µM)
COc1cc(/C=N/Nc2ccccn2)cc(OC)c1O | > 41
CCC(=O)Nc1ccc(-c2ccc(NC(=O)CC)c(OC)c2)cc1OC | 7.1 (≈ 19.9 µM)
c1ccc2c(c1)CC1(CCCC1)N=C2N1CCOCC1 | 35.5 (≈ 131 µM)
CCCCS(=O)(=O)N1CCC(C(=O)NCC2CCCO2)CC1 (centres undefined) | 46 (≈ 138 µM)
O=C(O)CCN=CC1=C(O)CC(c2ccccc2)CC1=O (centres undefined) | > 43.1
Cc1ccc(-c2nc(N3CCN(C)CC3)c3ccccc3n2)cc1.Cl | 49
CS(=O)(=O)N(CC(=O)N1CCOCC1)c1cccc(F)c1 | 40.7 (≈ 129 µM)
Cc1ccccc1NC(=O)CN1C(=O)CSc2ccccc21 | 3.6 (≈ 11.5 µM)

Structure (SMILES) | solubility kinetic [µg/mL]
COc1ccc(N2C(=O)CSC2c2ccccc2F)c(OC)c1 (centres undefined) | 45.9 (≈ 138 µM)
Cc1cc(C)nc(N2CCC(C(=O)NC3CC3)CC2)n1 | 36.4 (≈ 133 µM)
CCOC(=O)c1cnc(SC)nc1N1CCCC1 | > 40.1
CCN1C(=O)C(=Cc2ccc(N3CCOCC3)o2)C(=O)N(CC)C1=S | 1.1 (≈ 3.03 µM)
O=C1CC(c2ccco2)Sc2ccccc2N1 (centres undefined) | > 36.8
O=C(CCc1c[nH]c2ccccc12)N1CCCC1 | > 36.3
N#C/C(=C\c1ccc[nH]1)C(=O)NCC1CCCO1 (centres undefined) | > 36.8
CN1CCCC(OC(=O)c2ccccc2Br)C1.Cl (centres undefined) | > 50.2
Cc1ccc(OCC(=O)N2CCc3ccccc3C2)cc1 | > 42.2
O=C(CC1CC2CCC1C2)NC1CCCCCCC1 (centres undefined) | 4.5 (≈ 17.1 µM)
Oc1ccc(Cl)cc1CNc1cnc2ccccc2c1 | 1.2 (≈ 4.21 µM)
O=C(Nc1cccc([N+](=O)[O-])c1)c1ccccc1 | 9.6 (≈ 39.6 µM)
CC(=O)Nc1ccc(-c2nc3ccccc3o2)cc1 | 1.3 (≈ 5.15 µM)
CCc1ccc(NS(=O)(=O)c2c(C)noc2C)cc1 | > 42.1
CN1CCCN(S(=O)(=O)c2cccc(C#N)c2)CC1.Cl | > 47.4
CCc1sc(C(=O)N2CCCN(C)CC2)cc1Br | 46.5 (≈ 140 µM)
COc1ccc(S(=O)(=O)N2CCOCC2)cc1NC(=O)COc1ccc2c(C)cc(=O)oc2c1 | 4.1 (≈ 8.39 µM)
Cc1ccc(N2C(=O)CC(N3CCSCC3)C2=O)c(C)c1 (centres undefined) | > 45.7
Cc1ccc(N2C(=O)c3ccccc3C2C(=O)c2ccc(C)c(C)c2O)cc1 (centres undefined) | 10.6 (≈ 28.5 µM)
